Assay results: the NIST ThermoML archive (doi:10.1016/j.jct.2017.02.014)

How the values were obtained:
[1] = heat capacity at constant pressure per volume; xn = mol fraction of the nth substance listed; settings: 102.6 kPa, Liquid, DSC, x1 = 0.118
[2] = refractive index (other wavelength) (dimensionless); xn = mol fraction of the nth substance listed; settings: 100 kPa, Liquid, Wavelength=632.8 nm, minimum deviation angle method

CCCC[n+]1ccccc1.F[B-](F)(F)F [1-butylpyridinium tetrafluoroborate] + CCO
[1]
Settings | heat capacity [J/K/m3]
291.64 K | 2400000
291.84 K | 2413000
292.04 K | 2409000
292.24 K | 2412000
292.44 K | 2447000
292.64 K | 2446000
292.84 K | 2430000
293.04 K | 2446000
293.24 K | 2456000
293.44 K | 2452000
293.64 K | 2454000
293.84 K | 2466000
294.04 K | 2479000
294.24 K | 2512000
294.44 K | 2465000
294.64 K | 2512000
294.84 K | 2537000
295.04 K | 2539000
295.24 K | 2557000
295.44 K | 2564000
295.64 K | 2619000
295.84 K | 2578000
296.04 K | 2655000
296.24 K | 2606000
296.44 K | 2659000
296.64 K | 2847000
296.86 K | 2825000
297.04 K | 2338000
297.24 K | 2271000
297.44 K | 2220000
297.64 K | 2228000
297.84 K | 2203000
298.04 K | 2201000
298.24 K | 2198000
298.44 K | 2180000
298.64 K | 2187000
298.84 K | 2145000
299.04 K | 2169000
299.24 K | 2164000
299.44 K | 2169000
299.64 K | 2152000
299.84 K | 2153000
300.04 K | 2150000
300.24 K | 2151000
300.44 K | 2144000
300.64 K | 2130000
300.84 K | 2137000
301.24 K | 2132000
301.44 K | 2139000
301.64 K | 2140000
301.84 K | 2124000
302.04 K | 2130000
302.24 K | 2117000
302.44 K | 2124000
302.64 K | 2130000
302.84 K | 2122000
303.04 K | 2129000
303.24 K | 2131000
303.44 K | 2121000
303.63 K | 2121000
303.83 K | 2127000
304.04 K | 2126000
304.24 K | 2122000
304.44 K | 2130000
304.63 K | 2120000
304.83 K | 2123000
305.04 K | 2117000
305.24 K | 2113000
305.44 K | 2107000
305.63 K | 2112000
306.08 K | 2110000
306.51 K | 2108000
306.95 K | 2108000
307.39 K | 2107000
307.83 K | 2106000
308.26 K | 2106000
308.7 K | 2105000
309.14 K | 2104000
309.58 K | 2104000
310.02 K | 2104000
310.45 K | 2104000
310.89 K | 2105000
311.33 K | 2103000
311.77 K | 2102000
312.2 K | 2102000
312.64 K | 2102000
313.08 K | 2103000
313.52 K | 2101000
313.96 K | 2103000
314.39 K | 2101000
314.83 K | 2103000
315.27 K | 2102000
315.71 K | 2103000
316.14 K | 2102000
316.58 K | 2103000
317.02 K | 2103000
317.46 K | 2103000
317.89 K | 2105000
318.33 K | 2104000
318.77 K | 2106000
319.21 K | 2105000
319.65 K | 2107000
320.08 K | 2107000
320.52 K | 2108000
320.96 K | 2109000
321.4 K | 2109000
321.84 K | 2109000
322.27 K | 2110000
322.71 K | 2111000
323.15 K | 2110000

[2]
Settings | refractive index
281.73 K, x1 = 1 | 1.4481
282.78 K, x1 = 1 | 1.4478
284.05 K, x1 = 0.518 | 1.4307
284.14 K, x1 = 1 | 1.4475
284.68 K, x1 = 0.394 | 1.4224
285.33 K, x1 = 0.518 | 1.4304
285.74 K, x1 = 1 | 1.4471
286.42 K, x1 = 0.394 | 1.4219
286.94 K, x1 = 1 | 1.4468
287.46 K, x1 = 0.02 | 1.3684
287.51 K, x1 = 0.518 | 1.4298
287.68 K, x1 = 0.394 | 1.4215
288.24 K, x1 = 1 | 1.4464
288.69 K, x1 = 0.518 | 1.4295
288.71 K, x1 = 0.02 | 1.3679
289.37 K, x1 = 0.394 | 1.4211
289.38 K, x1 = 1 | 1.4461
289.82 K, x1 = 0.02 | 1.3675
290.14 K, x1 = 0.518 | 1.429
290.31 K, x1 = 0.394 | 1.4207
290.37 K, x1 = 1 | 1.4458
290.46 K, x1 = 0.313 | 1.414
291.26 K, x1 = 0.02 | 1.3669
291.42 K, x1 = 0.394 | 1.4204
291.42 K, x1 = 0.518 | 1.4287
292.08 K, x1 = 0.313 | 1.4134
292.15 K, x1 = 1 | 1.4454
292.64 K, x1 = 0.02 | 1.3663
293.1 K, x1 = 0.313 | 1.4131
293.41 K, x1 = 1 | 1.4451
294.23 K, x1 = 0.313 | 1.4128
294.38 K, x1 = 0.02 | 1.3657
295 K, x1 = 1 | 1.4446
295.32 K, x1 = 0.313 | 1.4124
296.19 K, x1 = 0.258 | 1.4062
296.35 K, x1 = 0.199 | 1.3993
296.35 K, x1 = 0.313 | 1.4121
296.89 K, x1 = 1 | 1.444
296.98 K, x1 = 0.06 | 1.3745
296.98 K, x1 = 0.142 | 1.3902
297.25 K, x1 = 0.095 | 1.3817
297.52 K, x1 = 0.258 | 1.4056
298.06 K, x1 = 0.142 | 1.3899
298.21 K, x1 = 0.06 | 1.374
298.51 K, x1 = 0.199 | 1.3986
298.56 K, x1 = 0.095 | 1.3813
298.9 K, x1 = 0.258 | 1.4052
299.34 K, x1 = 0.142 | 1.3895
299.43 K, x1 = 0.06 | 1.3736
299.58 K, x1 = 0.199 | 1.3982
299.67 K, x1 = 0.095 | 1.3809
299.98 K, x1 = 0.258 | 1.4048
300.34 K, x1 = 0.142 | 1.3892
300.79 K, x1 = 0.095 | 1.3805
300.89 K, x1 = 0.06 | 1.3731
300.95 K, x1 = 0.258 | 1.4046
301.1 K, x1 = 0.199 | 1.3977
301.77 K, x1 = 0.095 | 1.3802
301.77 K, x1 = 0.142 | 1.3886
301.92 K, x1 = 0.258 | 1.4043
302.08 K, x1 = 0.06 | 1.3726
302.16 K, x1 = 0.199 | 1.3974
302.93 K, x1 = 0.095 | 1.3798
302.94 K, x1 = 0.142 | 1.3883
303.3 K, x1 = 0.199 | 1.397
303.31 K, x1 = 0.06 | 1.3722
